{
  "source": "ChEMBL document CHEMBL1641539",
  "about": "(Bioorg Med Chem Lett, 2011)",
  "key": {"[1]": {"target": "Dual specificity mitogen-activated protein kinase kinase 1 (Homo sapiens) (UniProt Q02750)", "experiment": "Inhibition of human MEK1 at 10 uM after 60 mins by TR-FRET assay; values are per cent of control"}, "[2]": {"target": "Mitogen-activated protein kinase 1 (Homo sapiens, UniProt P28482)", "experiment": "Inhibition of human MAPK1 at 10 uM after 60 mins by TR-FRET assay", "details": "values are per cent of control"}, "[3]": {"target": "Mitogen-activated protein kinase kinase kinase 9 (Homo sapiens) (UniProt P80192)", "experiment": "Inhibition of human MLK1 at 10 uM after 60 mins by TR-FRET assay; values are per cent of control"}, "[4]": {"target": "Testis-specific serine/threonine-protein kinase 2 (Homo sapiens) (UniProt Q96PF2)", "sequence (Q96PF2 whole entry)": "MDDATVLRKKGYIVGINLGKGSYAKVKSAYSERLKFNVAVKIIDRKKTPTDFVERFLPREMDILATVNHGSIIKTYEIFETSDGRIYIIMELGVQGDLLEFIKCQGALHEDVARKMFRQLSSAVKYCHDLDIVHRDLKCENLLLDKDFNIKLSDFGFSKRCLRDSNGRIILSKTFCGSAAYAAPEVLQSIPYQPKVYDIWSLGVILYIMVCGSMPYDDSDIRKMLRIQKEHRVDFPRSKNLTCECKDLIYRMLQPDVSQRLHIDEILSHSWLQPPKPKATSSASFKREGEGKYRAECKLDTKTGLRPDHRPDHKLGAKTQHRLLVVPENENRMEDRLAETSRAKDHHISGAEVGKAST", "experiment": "Inhibition of human TSSK2 at 10 uM after 60 mins by TR-FRET assay; values are per cent of control"}, "[5]": {"system": "Fibroblast growth factor receptor 1 (Homo sapiens), P11362 [V561M]", "experiment": "Inhibition of human FGFR1 V561M mutant at 10 uM after 60 mins by TR-FRET assay; values are per cent of control"}, "[6]": {"system": "Proto-oncogene tyrosine-protein kinase receptor Ret (Homo sapiens), P07949 [V804M]", "sequence (P07949 whole entry V804M)": "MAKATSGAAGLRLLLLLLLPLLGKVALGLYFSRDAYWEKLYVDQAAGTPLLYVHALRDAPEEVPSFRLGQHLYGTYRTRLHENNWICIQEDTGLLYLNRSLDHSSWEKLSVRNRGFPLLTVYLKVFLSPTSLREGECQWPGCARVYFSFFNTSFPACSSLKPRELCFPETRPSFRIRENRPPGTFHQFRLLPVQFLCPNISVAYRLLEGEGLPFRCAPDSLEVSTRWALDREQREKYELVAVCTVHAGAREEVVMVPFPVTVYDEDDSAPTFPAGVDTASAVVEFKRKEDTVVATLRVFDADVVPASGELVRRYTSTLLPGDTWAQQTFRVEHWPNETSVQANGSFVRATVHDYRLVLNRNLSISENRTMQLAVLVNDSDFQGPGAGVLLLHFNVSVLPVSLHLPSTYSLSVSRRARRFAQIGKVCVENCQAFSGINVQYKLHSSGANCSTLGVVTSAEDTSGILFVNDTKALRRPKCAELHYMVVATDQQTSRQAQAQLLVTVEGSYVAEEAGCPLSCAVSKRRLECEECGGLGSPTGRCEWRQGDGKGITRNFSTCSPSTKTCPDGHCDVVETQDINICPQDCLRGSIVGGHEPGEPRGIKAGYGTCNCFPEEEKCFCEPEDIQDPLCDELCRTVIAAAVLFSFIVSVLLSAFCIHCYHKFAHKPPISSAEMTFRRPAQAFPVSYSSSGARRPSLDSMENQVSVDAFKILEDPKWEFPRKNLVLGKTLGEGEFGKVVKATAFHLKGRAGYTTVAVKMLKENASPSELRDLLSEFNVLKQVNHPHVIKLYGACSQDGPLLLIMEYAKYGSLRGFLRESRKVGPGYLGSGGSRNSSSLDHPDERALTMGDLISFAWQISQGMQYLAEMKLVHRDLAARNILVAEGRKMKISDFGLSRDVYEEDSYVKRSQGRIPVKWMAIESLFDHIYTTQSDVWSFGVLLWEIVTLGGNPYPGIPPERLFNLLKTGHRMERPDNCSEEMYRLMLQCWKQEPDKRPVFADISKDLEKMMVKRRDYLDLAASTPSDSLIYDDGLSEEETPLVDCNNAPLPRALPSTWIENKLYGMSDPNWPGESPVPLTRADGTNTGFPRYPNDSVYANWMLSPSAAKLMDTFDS", "experiment": "Inhibition of human Ret V804M mutant at 10 uM after 60 mins by TR-FRET assay; values are per cent of control"}, "[7]": {"target": "Ephrin type-A receptor 8 (Homo sapiens) (UniProt P29322)", "experiment": "Inhibition of human EphA8 at 10 uM after 60 mins by TR-FRET assay; values are per cent of control"}, "[8]": {"target": "Insulin receptor (Homo sapiens) (UniProt P06213)", "sequence (P06213 28-758 limits assumed)": "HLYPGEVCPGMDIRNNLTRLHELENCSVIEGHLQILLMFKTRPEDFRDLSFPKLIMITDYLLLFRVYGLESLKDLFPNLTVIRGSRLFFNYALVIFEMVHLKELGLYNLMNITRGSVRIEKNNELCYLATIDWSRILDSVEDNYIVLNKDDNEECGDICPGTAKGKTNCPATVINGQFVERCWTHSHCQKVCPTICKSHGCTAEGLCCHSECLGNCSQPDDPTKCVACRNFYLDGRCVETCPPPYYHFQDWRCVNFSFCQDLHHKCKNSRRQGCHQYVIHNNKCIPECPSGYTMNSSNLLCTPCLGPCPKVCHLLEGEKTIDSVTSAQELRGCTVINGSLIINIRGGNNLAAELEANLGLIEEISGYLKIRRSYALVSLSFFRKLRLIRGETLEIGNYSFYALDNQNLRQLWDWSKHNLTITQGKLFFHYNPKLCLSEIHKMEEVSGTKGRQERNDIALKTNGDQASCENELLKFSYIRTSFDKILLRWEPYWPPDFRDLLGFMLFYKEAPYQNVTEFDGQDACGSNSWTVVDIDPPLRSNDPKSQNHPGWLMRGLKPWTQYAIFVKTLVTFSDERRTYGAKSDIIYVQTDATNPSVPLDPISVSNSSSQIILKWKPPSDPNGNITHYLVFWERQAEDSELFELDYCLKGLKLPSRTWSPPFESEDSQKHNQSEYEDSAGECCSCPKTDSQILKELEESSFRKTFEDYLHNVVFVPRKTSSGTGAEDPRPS", "sequence (P06213 763-1382 limits assumed)": "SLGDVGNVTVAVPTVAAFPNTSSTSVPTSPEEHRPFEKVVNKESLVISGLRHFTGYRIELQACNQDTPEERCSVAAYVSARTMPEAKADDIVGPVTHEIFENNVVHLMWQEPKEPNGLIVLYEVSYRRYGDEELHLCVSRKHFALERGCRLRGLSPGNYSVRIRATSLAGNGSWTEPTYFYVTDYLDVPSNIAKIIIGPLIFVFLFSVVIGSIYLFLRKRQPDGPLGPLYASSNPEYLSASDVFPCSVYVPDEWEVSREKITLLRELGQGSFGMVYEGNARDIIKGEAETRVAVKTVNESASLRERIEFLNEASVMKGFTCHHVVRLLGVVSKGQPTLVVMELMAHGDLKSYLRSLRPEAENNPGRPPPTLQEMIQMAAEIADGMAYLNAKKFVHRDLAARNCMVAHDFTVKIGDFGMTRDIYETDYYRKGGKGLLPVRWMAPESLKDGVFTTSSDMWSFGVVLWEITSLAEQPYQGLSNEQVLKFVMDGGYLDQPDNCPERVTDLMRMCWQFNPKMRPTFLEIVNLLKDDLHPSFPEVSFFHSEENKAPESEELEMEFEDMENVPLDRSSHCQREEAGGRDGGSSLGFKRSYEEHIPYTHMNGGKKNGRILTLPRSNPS", "experiment": "Inhibition of human IR at 10 uM after 60 mins by TR-FRET assay; values are per cent of control"}, "[9]": {"target": "Dual specificity mitogen-activated protein kinase kinase 4 (Mus musculus) (UniProt P47809)", "sequence (P47809 whole entry)": "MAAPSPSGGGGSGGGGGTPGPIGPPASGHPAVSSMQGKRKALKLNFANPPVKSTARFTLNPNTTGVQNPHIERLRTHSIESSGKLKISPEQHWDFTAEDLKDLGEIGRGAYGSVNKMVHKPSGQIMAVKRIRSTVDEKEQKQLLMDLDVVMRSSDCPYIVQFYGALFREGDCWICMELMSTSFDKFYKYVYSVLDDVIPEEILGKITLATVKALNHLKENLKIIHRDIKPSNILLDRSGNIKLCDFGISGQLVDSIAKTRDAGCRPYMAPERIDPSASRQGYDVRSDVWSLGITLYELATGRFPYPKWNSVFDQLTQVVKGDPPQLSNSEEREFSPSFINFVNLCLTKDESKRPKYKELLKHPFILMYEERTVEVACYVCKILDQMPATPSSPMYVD", "experiment": "Inhibition of mouse MKK4 at 10 uM after 60 mins by TR-FRET assay; values are per cent of control"}, "[10]": {"system": "Mast/stem cell growth factor receptor Kit (Homo sapiens), P10721 [V560G]", "experiment": "Inhibition of human c-Kit V560G mutant at 10 uM after 60 mins by TR-FRET assay; values are per cent of control"}, "[11]": {"target": "Serine/threonine-protein kinase pim-2 (Homo sapiens) (UniProt Q9P1W9)", "sequence (Q9P1W9 whole entry, looked up)": "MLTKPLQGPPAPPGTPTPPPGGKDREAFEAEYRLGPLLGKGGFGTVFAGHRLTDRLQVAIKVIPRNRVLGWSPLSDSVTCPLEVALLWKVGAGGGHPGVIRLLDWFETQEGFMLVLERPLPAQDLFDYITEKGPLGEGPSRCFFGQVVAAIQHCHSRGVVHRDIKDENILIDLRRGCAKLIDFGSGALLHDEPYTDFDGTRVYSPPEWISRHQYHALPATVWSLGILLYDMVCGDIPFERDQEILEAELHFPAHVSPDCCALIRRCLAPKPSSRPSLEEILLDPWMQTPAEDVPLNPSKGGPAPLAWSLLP", "experiment": "Inhibition of human Pim-2 at 10 uM after 60 mins by TR-FRET assay; values are per cent of control"}, "[12]": {"target": "G protein-coupled receptor kinase 6 (Homo sapiens) (UniProt P43250)", "experiment": "Inhibition of human GRK6 at 10 uM after 60 mins by TR-FRET assay; values are per cent of control"}, "[13]": {"target": "Misshapen-like kinase 1 (Homo sapiens) (UniProt Q8N4C8)", "experiment": "Inhibition of human MINK at 10 uM after 60 mins by TR-FRET assay; values are per cent of control"}, "Homo sapiens": {"species_on_record": "Homo sapiens", "experiment": "Inhibition of human PKA at 10 uM after 60 mins by TR-FRET assay; values are per cent of control"}, "[14]": {"system": "Tyrosine-protein kinase ABL1 (Homo sapiens), P00519 [Q252H]", "experiment": "Inhibition of human Abl Q252H mutant at 10 uM after 60 mins by TR-FRET assay; values are per cent of control"}, "[15]": {"target": "Serine/threonine-protein kinase BRSK1 (Homo sapiens) (UniProt Q8TDC3)", "experiment": "Inhibition of human BrSK1 at 10 uM after 60 mins by TR-FRET assay; values are per cent of control"}, "[16]": {"target": "Tyrosine-protein kinase Lyn (Mus musculus) (UniProt P25911)", "sequence (P25911 whole entry)": "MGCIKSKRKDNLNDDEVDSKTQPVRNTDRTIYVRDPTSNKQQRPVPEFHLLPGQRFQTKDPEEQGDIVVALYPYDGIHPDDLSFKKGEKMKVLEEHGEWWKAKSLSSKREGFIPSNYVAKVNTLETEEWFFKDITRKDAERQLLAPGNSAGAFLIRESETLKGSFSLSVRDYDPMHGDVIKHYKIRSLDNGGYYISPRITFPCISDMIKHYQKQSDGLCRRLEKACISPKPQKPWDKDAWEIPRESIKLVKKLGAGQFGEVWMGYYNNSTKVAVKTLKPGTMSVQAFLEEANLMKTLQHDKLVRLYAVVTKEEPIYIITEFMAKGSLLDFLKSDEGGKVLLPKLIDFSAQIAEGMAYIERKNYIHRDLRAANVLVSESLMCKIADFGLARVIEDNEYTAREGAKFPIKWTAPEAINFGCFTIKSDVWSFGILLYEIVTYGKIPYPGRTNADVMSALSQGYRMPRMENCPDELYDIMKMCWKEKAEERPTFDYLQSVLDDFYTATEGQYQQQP", "experiment": "Inhibition of mouse Lyn at 10 uM after 60 mins by TR-FRET assay; values are per cent of control"}, "[17]": {"target": "Mitogen-activated protein kinase kinase kinase 7 (Homo sapiens) (UniProt O43318)", "sequence (O43318 whole entry)": "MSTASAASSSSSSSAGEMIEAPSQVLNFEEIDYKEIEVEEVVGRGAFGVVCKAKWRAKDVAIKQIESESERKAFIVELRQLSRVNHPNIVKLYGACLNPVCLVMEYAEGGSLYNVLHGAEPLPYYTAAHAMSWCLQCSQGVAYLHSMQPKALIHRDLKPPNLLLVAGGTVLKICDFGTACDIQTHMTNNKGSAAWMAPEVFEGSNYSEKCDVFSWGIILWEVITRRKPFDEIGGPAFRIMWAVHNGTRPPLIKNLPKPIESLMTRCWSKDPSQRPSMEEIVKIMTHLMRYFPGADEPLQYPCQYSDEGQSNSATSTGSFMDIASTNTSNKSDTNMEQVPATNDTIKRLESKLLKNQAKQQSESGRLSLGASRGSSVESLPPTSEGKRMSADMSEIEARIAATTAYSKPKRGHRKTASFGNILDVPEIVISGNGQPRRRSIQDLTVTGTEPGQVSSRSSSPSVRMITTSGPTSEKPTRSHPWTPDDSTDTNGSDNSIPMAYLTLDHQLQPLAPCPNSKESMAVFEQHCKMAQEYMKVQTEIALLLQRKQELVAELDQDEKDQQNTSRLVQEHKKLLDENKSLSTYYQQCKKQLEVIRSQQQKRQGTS", "experiment": "Inhibition of human TAK1 at 10 uM after 60 mins by TR-FRET assay; values are per cent of control"}, "[18]": {"target": "Serine/threonine-protein kinase Sgk2 (Homo sapiens) (UniProt Q9HBY8)", "sequence (Q9HBY8 whole entry)": "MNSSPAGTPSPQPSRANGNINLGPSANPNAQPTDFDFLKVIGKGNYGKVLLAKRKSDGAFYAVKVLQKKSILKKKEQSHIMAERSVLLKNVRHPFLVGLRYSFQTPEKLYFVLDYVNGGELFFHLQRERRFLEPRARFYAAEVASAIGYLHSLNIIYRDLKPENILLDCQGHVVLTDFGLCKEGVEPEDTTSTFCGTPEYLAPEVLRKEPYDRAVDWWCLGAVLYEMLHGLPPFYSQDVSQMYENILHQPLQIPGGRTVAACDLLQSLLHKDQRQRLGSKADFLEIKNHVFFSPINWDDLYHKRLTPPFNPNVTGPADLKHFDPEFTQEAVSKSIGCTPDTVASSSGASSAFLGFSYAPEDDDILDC", "experiment": "Inhibition of human SGK2 at 10 uM after 60 mins by TR-FRET assay; values are per cent of control"}},
  "data": [
    {"smiles": "S=c1[nH]nc(-c2ccncc2)n1-c1ccc2ccccc2c1", "values": [
      {"measurement": "residual activity", "setting": "[1]", "value": 110, "unit": "%"},
      {"measurement": "residual activity", "setting": "[2]", "value": 109, "unit": "%"},
      {"measurement": "residual activity", "setting": "[3]", "value": 109, "unit": "%"},
      {"measurement": "residual activity", "setting": "[4]", "value": 107, "unit": "%"},
      {"measurement": "residual activity", "setting": "[5]", "value": 106, "unit": "%"},
      {"measurement": "residual activity", "setting": "[6]", "value": 116, "unit": "%"},
      {"measurement": "residual activity", "setting": "[7]", "value": 99, "unit": "%"},
      {"measurement": "residual activity", "setting": "[8]", "value": 106, "unit": "%"},
      {"measurement": "residual activity", "setting": "[9]", "value": 106, "unit": "%"},
      {"measurement": "residual activity", "setting": "[10]", "value": 102, "unit": "%"},
      {"measurement": "residual activity", "setting": "[11]", "value": 111, "unit": "%"},
      {"measurement": "residual activity", "setting": "[12]", "value": 108, "unit": "%"},
      {"measurement": "residual activity", "setting": "[13]", "value": 80, "unit": "%"},
      {"measurement": "residual activity", "setting": "Homo sapiens", "value": 93, "unit": "%"},
      {"measurement": "residual activity", "setting": "[14]", "value": 111, "unit": "%"},
      {"measurement": "residual activity", "setting": "[15]", "value": 102, "unit": "%"},
      {"measurement": "residual activity", "setting": "[16]", "value": 100, "unit": "%"},
      {"measurement": "residual activity", "setting": "[17]", "value": 89, "unit": "%"},
      {"measurement": "residual activity", "setting": "[18]", "value": 119, "unit": "%"}
    ]}
  ]
}
